Experimental data from patent US20190062749A1, “SIRNA, PHARMACEUTICAL COMPOSITION AND CONJUGATE WHICH CONTAIN SIRNA, AND USES THEREOF” (priority 2015, published 2019).
Where two headings read alike, the source gives them in different places. Oligonucleotides are written 5' to 3', each unit as a sugar letter and its base; * is a phosphorothioate linkage, no mark a phosphodiester; rarer units and linkages stand in square brackets, end groups in braces. Plain capitals give the bases only. d = 2'-deoxy (DNA); m = 2'-O-methyl; r = 2'-OH (RNA); f = 2'-fluoro

Experiment: Stability of siRNAs in human plasma in vitro (gel, ratio of the longest fragments RL)
Format: in vitro ADME
Procedure: The siRNAs (20 μM, 10 μl) obtained in Preparation Example 1 were incubated with 50% human plasma (HP) at 37° C. in vitro for a certain time and samples were taken therefrom. Specifically, 10 μl samples were taken at 0, 2, 4, 6, 8, 24 and 48 hours respectively and immediately snap frozen in liquid nitrogen, followed by cryopreservation at −80° C. for future use. 20 wt % non-denaturing polyacrylamide gel was formulated, and 10 μl 5-fold diluted above samples (dilution solution: 1×PBS buffer at pH 7.4) and 4 μl loading buffer (20 mM EDTA, 36 wt % glycerol, 0.06 wt % bromophenol blue) were mixed and then loaded into the gel to perform electrophoresis for about 60 minutes under 80 mA constant current. After electrophoresis finished, the gel was stained with 1× Sybr Gold dye (Invitrogen, Cat. 11494) for 15 minutes followed by imaging.
The ratio of the longest fragments remained after incubating the test siRNAs and control siRNAs with human plasma to the longest fragments of the siRNAs without the treatment of human plasma (i.e., the markers shown in FIG. 3) (also referred to as ratio of the longest fragments, RL) is calculated by reading the grayscale values quantitatively.

| Substance | RL (ratio of the longest fragments) 0 h (50% human plasma, 37° C., 0 h) [%] | RL (ratio of the longest fragments) 2 h (50% human plasma, 37° C., 2 h) [%] | RL (ratio of the longest fragments) 4 h (50% human plasma, 37° C., 4 h) [%] | RL (ratio of the longest fragments) 6 h (50% human plasma, 37° C., 6 h) [%] | RL (ratio of the longest fragments) 8 h (50% human plasma, 37° C., 8 h) [%] | RL (ratio of the longest fragments) 24 h (50% human plasma, 37° C., 24 h) [%] | RL (ratio of the longest fragments) 48 h (50% human plasma, 37° C., 48 h) [%] | RL (ratio of the longest fragments) 0 h [%] | RL (ratio of the longest fragments) 2 h [%] | RL (ratio of the longest fragments) 4 h [%] | RL (ratio of the longest fragments) 6 h [%] | RL (ratio of the longest fragments) 8 h [%] | RL (ratio of the longest fragments) 24 h [%] | RL (ratio of the longest fragments) 48 h [%] |
| --- | --- | --- | --- | --- | --- | --- | --- | --- | --- | --- | --- | --- | --- | --- |
| 8d: sense CmCmUmUmGAGGCmAUmACmUmUmCmAAAdTdT, antisense UfUmUfGAAGUAUfGCCUfCAAGGdTdT (sense mCmCmUmUrGrArGrGmCrAmUrAmCmUmUmCrArArAdTdT; antisense fUmUfUrGrArArGrUrAfUrGrCrCfUrCrArArGrGdTdT) | 100.0 | 78.2 | 72.7 | 59.7 | 48.3 | 34.0 | 25.9 |  |  |  |  |  |  |  |
| NC-bas: negative control siRNA; sense UmUmCmUmCmCmGAACmGUmGUmCmACmGUmdTdT, antisense ACmGUfGACfACfGUfUfCfGGAGAAdTdT (sense UUCUCCGAACGUGUCACGUTT; antisense ACGUGACACGUUCGGAGAATT; chemistry not fully specified) [reference compound] |  |  |  |  |  |  |  | 100.0 | 95.1 | 89.8 | 86.8 | 85.3 | 91.1 | 90.8 |
| X2M2(S−−): sense CmCmUmUmGAGGCmAUmACmUmUmCmAAAdTdT, antisense UfUmUfGAAGUfAUGCCUfCAAGGdTdT (as printed in the source, key not given here) | 100.0 | 111.3 | 97.5 | 90.2 | 96.1 | 109.1 | 93.9 |  |  |  |  |  |  |  |
| NC-pos: negative control siRNA; sense UmUmCmUmCCGAAmCGmUGmUmCmAmCGUdTdT, antisense AfCmGfUGACAfCGfUUCGfGAGAAdTdT (sense UUCUCCGAACGUGUCACGUTT; antisense ACGUGACACGUUCGGAGAATT; chemistry not fully specified) [reference compound] |  |  |  |  |  |  |  | 100.0 | 93.4 | 95.9 | 84.9 | 88.6 | 87.1 | 90.0 |
| 3d: sense CmCmUmUmGAGGCmAUmACmUmUmCmAAAdTdT, antisense UfUmUGAAGUfAUfGCCUfCAAGGdTdT (sense mCmCmUmUrGrArGrGmCrAmUrAmCmUmUmCrArArAdTdT; antisense fUmUrUrGrArArGfUrAfUrGrCrCfUrCrArArGrGdTdT) | 100.0 | 96.6 | 99.6 | 93.3 | 87.1 | 75.0 | 41.6 |  |  |  |  |  |  |  |
| NC: negative control siRNA; sense UUCUCCGAACGUGUCACGUdTdT, antisense ACGUGACACGUUCGGAGAAdTdT (sense UUCUCCGAACGUGUCACGUTT; antisense ACGUGACACGUUCGGAGAATT; further chemistry not given here) [reference compound] |  |  |  |  |  |  |  | 100.0 | 83.9 | 69.7 | 58.4 | 52.6 | 36.2 | 26.0 |
| X2M2(S++): sense CmCmUmUmGAGGCmAUmACmUmUmCmAAAdT-s-dT, antisense UfUmUfGAAGUfAUGCCUfCAAGGdT-s-dT (sense CCUUGAGGCAUACUUCAAAT; antisense UUUGAAGUAUGCCUCAAGGT; chemistry not fully specified) | 100.0 | 101.5 | 98.2 | 98.6 | 93.0 | 92.1 | 90.9 |  |  |  |  |  |  |  |
| 14d: sense CmCmUmUmGAGGCmAUmACmUmUmCmAAAdTdT, antisense UfUmUfGAAGUfAUfGCCUCAAGGdTdT (sense mCmCmUmUrGrArGrGmCrAmUrAmCmUmUmCrArArAdTdT; antisense fUmUfUrGrArArGfUrAfUrGrCrCrUrCrArArGrGdTdT) | 100.0 | 94.6 | 90.0 | 85.6 | 86.0 | 78.0 | 84.6 |  |  |  |  |  |  |  |
| 1d: sense CmCmUmUmGAGGCmAUmACmUmUmCmAAAdTdT, antisense UUmUfGAAGUfAUfGCCUfCAAGGdTdT (sense mCmCmUmUrGrArGrGmCrAmUrAmCmUmUmCrArArAdTdT; antisense rUmUfUrGrArArGfUrAfUrGrCrCfUrCrArArGrGdTdT) | 100.0 | 90.0 | 97.2 | 93.3 | 87.5 | 55.7 | 65.1 |  |  |  |  |  |  |  |
| 2d: sense CmCmUmUmGAGGCmAUmACmUmUmCmAAAdTdT, antisense UfUUfGAAGUfAUfGCCUfCAAGGdTdT (sense mCmCmUmUrGrArGrGmCrAmUrAmCmUmUmCrArArAdTdT; antisense fUrUfUrGrArArGfUrAfUrGrCrCfUrCrArArGrGdTdT) | 100.0 | 97.6 | 88.2 | 82.2 | 84.5 | 82.1 | 78.4 |  |  |  |  |  |  |  |
